Reference: article PMC3298469, “A selective and potent CXCR3 antagonist SCH 546738 attenuates the development of autoimmune diseases and delays graft rejection” (BMC Immunology, 2012)
Read-outs that look alike come from different tables or passages of the source.

Legend:
[1] = test system: C57BL/6 mice; test: mouse experimental autoimmune encephalomyelitis (MOG35-55); assay type: in vivo
Protocol: Female C57BL/6 mice were purchased from Jackson Laboratory (Bar Harbor, ME). For immunization, 150 μg MOG35-55 peptide prepared by Princeton Biomolecules (Langhorne, PA, USA) and 300 μg killed Mycobacterium tuberculosis (Difco, Detroit, MI) were mixed in CFA (Sigma-Aldrich, St Louis, MO, USA) and injected s.c. in two 50-μl injections over the flanks on day 1. Also, 200 ng of pertussis toxin (Sigma-Aldrich, St Louis, MO) was injected i.v. on days 0 and 2. The compound was administered orally twice daily. Dosing with the compound started at day 0, 24 h prior to MOG35-55 immunization (day 1). Mice were monitored daily and assessed for clinical signs of disease in a blinded fashion according to the following criteria: 0, no signs of disease; 1, tail paralysis; 2, limp tail and hind limb weakness; 3, hind limb paralysis; 4, hind limb plus forelimb paralysis; and 5, moribund or dead. Cumulative clinical scores were calculated by adding daily scores from the day of immunization until the end of the experiment. Mean clinical scores at separate days and mean maximal scores were calculated by adding the scores of individual mice and dividing with the number of mice in each group, including mice not developing signs of EAE. […]

[2] = molecular target: T1, CXCR3 (Homo sapiens, UniProt P49682); test: [125I]hCXCL11 competition binding (SPA, Ba/F3 membranes); design: expressed in transfected cells; host or cells: mouse pro-B Ba/F3 cells (vector pME18Sneo), membrane preparation
T1 sequence (P49682 1-368): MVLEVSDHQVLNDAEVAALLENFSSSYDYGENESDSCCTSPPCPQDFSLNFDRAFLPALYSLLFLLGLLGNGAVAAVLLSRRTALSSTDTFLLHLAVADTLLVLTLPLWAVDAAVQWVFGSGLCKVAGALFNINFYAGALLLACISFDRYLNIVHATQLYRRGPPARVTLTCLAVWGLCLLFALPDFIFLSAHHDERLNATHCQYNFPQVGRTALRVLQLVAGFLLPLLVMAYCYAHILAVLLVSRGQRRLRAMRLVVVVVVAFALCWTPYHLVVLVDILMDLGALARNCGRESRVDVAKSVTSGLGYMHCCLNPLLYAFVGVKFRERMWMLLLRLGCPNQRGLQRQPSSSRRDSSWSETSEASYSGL
Protocol: (§1) The cDNAs encoding human, mouse and rat CXCR3 were generated based on the published sequences: human (NM_001504), mouse (NM_009910), rat (NM_053415). The cDNAs for monkey and dog CXCR3 were cloned in the lab. All CXCR3 cDNAs were cloned into the mammalian expression vector pME18Sneo, a derivative of the SRα expression vector as described previously. IL-3-dependent mouse pro-B cells Ba/F3 were transfected to express CXCR3 of different species and cell membranes were prepared as described previously.
(§2) A scintillation proximity assay was used for radioligand competition binding assays as described previously with some modifications. For each assay point, 1 µg of membrane was preincubated for 1 hr with 300 µg wheat germ agglutinin (WGA) coated SPA beads (GE Healthcare Life Sciences) in the binding buffer (50 mM HEPES, 1 mM CaCl2, 5 mM MgCl2, 125 mM NaCl, 0.002% NaN3, 1.0% BSA) at room temperature. The beads were spun down, resuspended in the binding buffer and transferred to a 96-well Isoplate (Wallac, Gaithersburg, MD). The indicated concentrations of ^125I-hCXCL10, ^125I-hCXCL11 or ^35S-SCH 535390 with a series of titrations of SCH 546738 were added to start the reaction. After indicated reaction times at room temperature, the amount of radioactivity bound to the SPA beads was determined with a Wallac 1450 Microbeta counter (Wallac).
The ability of SCH 546738 to compete the binding of [^125I]hCXCL10 and [^125I]hCXCL11 to human CXCR3 receptor was determined using various concentrations of [^125I]hCXCL10 and [^125I]hCXCL11 as described in Methods. After 3 hr reaction, specific counts relative to input counts (B/B0) in the presence of increasing concentrations of SCH 546738 are plotted.

[3] = molecular target: T1, CXCR3; test: competition binding analysis using 35S-SCH 535390 as tracer (SPA); design: expressed in transfected cells; host or cells: mouse pro-B Ba/F3 cells (vector pME18Sneo), membrane preparation; settings: competition with 35S-SCH 535390 tracer; multiple experiments; read-out: affinity constant (Ki) of binding to human CXCR3 receptor
Protocol: as §1
as §2, with “(Wallac). […]” for “(Wallac).”

[4] = test system: male B10.RIII mice; test: mouse collagen-induced arthritis (disease score and paw histopathology); assay type: in vivo
Protocol: Briefly, 12-week-old male B10.RIII mice (Jackson Laboratories, Bar Harbor, ME) were immunized intradermally at five sites with bovine type II collagen (Elastin Products, Owensville, MO) emulsified with an equal volume of complete Freund's adjuvant (CFA). CFA was comprised of a mixture of incomplete Freund's adjuvant (Difco, Detroit, MI) and heat-killed, freeze-dried Mycobacteria tuberculosis (Ministry of Agriculture, Fisheries & Food, Surrey, England). Each mouse received 300 µg/ml bovine type II collagen and 0.5 mg/ml complete Freund's adjuvant. Mice were boosted intraperitoneally with 100 µg of bovine type II collagen on day 20. Disease progression was monitored by a standardized visual scoring system with a scale from 0 to 12 reflecting the degree of swelling/redness of each paw (maximal score 3 per paw) and the number of paws (maximal 4) involved per individual animal.
After euthanasia, front and hind paws of the animals were dissected and fixed by immersion in 10% phosphate-buffered formalin before decalcification. Following decalcification with Cal-Rite (Richard Allen Scientific, Kalamazoo, MI), formalin fixed tissues were processed and sectioned at 5µm. Paraffin sections were stained with Hematoxylin and Eosin (H&E). […] The changes in joint structures, including cartilage destruction, bone erosion/remodelling and pannus formation were scored as follows: 0 = Normal, 1 = Minimal, 2 = Mild, 3 = Moderate, 4 = Marked, 5 = Severe. A grade of 5.5 was also added to address full-thickness cartilage breach. Cellular infiltrates and inflammation in animal joints were scored as the following: 0 = Normal, 1 = Minimal, 2 = Mild, 3 = Moderate, 4 = Marked.
Statistical significance was evaluated by comparing the vehicle-treated group with the experimental group using unpaired t-test. Differences were considered significant when p values were <0.05.
Sixteen days later which was 4 days prior to receiving a BC II boost (day -4); mice were randomized into treatment groups with approximately 10% of the animals in each group having developed at least one swollen paw. Oral twice daily treatment with SCH 546738 was initiated at this time (day -4) and continued through day 9, with a BC II antigen boost on day 0.
SCH 546738 in 0.4% methylcellulose was administered orally twice daily at 3, 10 and 40 mg/kg (mpk). Dosing was initiated 16 days (day -4) postimmunization and continued through day 9.
Paws collected at day 9 from the vehicle (0.4% methylcellulose) and 40 mpk SCH 546738 groups of two independent experiments were analyzed by histopathology.

[5] = molecular target: Dopamine D4.2 (Homo sapiens, UniProt P21917, DEL265-296); test: GPCR counterscreen binding assay
Protocol: (§3) SCH 546738 was tested at concentrations of 1-10 μM against a panel of 49 GPCR binding assays. Most of the assays were not affected by SCH 546738 (Table 2). […] In addition, SCH 546738 has a favourable pharmacokinetic profile in rodents. […] Therefore, SCH 546738 is suitable for in vivo preclinical studies.

[6] = molecular target: Dopamine D1 (Homo sapiens, UniProt P21728); test: GPCR counterscreen binding assay
Protocol: as §3

[7] = molecular target: Histamine H1 (Homo sapiens, UniProt P35367); test: GPCR counterscreen binding assay
Protocol: as §3

[8] = molecular target: Muscarinic M5 (Homo sapiens, UniProt P08912); test: GPCR counterscreen binding assay
Protocol: as §3

[9] = molecular target: Neuropeptide Y (Y1) (Homo sapiens, UniProt P25929); test: GPCR counterscreen binding assay
Protocol: as §3

[10] = molecular target: CXCR2 (Homo sapiens, UniProt P25025); test: GPCR counterscreen binding assay
Protocol: as §3

[11] = molecular target: Kappa opiate (Homo sapiens, UniProt P41145); test: GPCR counterscreen binding assay
Protocol: as §3

[12] = molecular target: Adrenergic α2B (Homo sapiens, UniProt P18089); test: GPCR counterscreen binding assay
Protocol: as §3

[13] = molecular target: Muscarinic M2 (Homo sapiens, UniProt P08172); test: GPCR counterscreen binding assay
Protocol: as §3

[14] = molecular target: CCR7 (Homo sapiens, UniProt P32248); test: GPCR counterscreen binding assay
Protocol: as §3

[15] = molecular target: Dopamine D3 (Homo sapiens, UniProt P35462); test: GPCR counterscreen binding assay
Protocol: as §3

[16] = molecular target: Neurokinin NK2 (Homo sapiens, UniProt P21452); test: GPCR counterscreen binding assay
Protocol: as §3

[17] = test system: VR1N; test: GPCR counterscreen binding assay; settings: @ 4 μM
Protocol: as §3

[18] = molecular target: Muscarinic M4 (Homo sapiens, UniProt P08173); test: GPCR counterscreen binding assay
Protocol: as §3

[19] = molecular target: Histamine H3 (Homo sapiens, UniProt Q9Y5N1); test: GPCR counterscreen binding assay
Protocol: as §3

[20] = molecular target: Vasopressin (V1b) (Homo sapiens, UniProt P47901); test: GPCR counterscreen binding assay
Protocol: as §3

[21] = 40 mpk, paws collected on day 9

Chain of Vasopressin (V1b) (P47901 whole entry): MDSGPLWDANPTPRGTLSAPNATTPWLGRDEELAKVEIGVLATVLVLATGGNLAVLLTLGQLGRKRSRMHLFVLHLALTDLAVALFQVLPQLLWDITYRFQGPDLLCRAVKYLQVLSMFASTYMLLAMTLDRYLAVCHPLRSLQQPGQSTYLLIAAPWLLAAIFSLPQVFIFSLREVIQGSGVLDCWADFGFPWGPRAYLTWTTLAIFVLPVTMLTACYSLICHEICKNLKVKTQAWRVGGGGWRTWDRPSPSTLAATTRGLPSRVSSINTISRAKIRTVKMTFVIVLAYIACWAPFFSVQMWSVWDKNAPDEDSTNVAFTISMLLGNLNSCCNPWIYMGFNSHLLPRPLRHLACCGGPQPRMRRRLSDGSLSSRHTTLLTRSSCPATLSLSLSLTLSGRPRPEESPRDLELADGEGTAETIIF
Chain of Dopamine D4.2 (P21917 with tags, fused parts or gaps DEL265-296): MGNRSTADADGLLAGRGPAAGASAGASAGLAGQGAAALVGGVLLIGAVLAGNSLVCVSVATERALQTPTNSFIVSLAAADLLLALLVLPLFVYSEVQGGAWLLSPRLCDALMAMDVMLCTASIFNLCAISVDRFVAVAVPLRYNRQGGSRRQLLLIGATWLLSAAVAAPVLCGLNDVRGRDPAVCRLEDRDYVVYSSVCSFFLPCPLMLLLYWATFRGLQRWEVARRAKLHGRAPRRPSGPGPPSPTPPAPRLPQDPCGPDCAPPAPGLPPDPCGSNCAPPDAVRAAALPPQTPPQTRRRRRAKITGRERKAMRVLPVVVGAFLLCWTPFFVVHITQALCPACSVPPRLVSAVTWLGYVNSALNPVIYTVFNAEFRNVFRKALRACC
Chain of Neurokinin NK2 (P21452 whole entry): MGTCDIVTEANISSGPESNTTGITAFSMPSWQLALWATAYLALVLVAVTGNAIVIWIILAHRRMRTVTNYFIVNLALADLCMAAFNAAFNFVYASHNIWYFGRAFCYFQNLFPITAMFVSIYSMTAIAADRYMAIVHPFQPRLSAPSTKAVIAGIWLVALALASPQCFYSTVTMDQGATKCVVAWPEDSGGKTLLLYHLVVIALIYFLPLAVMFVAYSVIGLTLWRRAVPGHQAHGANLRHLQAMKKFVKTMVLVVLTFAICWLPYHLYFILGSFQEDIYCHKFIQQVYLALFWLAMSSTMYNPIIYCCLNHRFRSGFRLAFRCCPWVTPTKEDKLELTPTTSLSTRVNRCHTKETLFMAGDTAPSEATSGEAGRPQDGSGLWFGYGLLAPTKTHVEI
Chain of Histamine H1 (P35367 whole entry): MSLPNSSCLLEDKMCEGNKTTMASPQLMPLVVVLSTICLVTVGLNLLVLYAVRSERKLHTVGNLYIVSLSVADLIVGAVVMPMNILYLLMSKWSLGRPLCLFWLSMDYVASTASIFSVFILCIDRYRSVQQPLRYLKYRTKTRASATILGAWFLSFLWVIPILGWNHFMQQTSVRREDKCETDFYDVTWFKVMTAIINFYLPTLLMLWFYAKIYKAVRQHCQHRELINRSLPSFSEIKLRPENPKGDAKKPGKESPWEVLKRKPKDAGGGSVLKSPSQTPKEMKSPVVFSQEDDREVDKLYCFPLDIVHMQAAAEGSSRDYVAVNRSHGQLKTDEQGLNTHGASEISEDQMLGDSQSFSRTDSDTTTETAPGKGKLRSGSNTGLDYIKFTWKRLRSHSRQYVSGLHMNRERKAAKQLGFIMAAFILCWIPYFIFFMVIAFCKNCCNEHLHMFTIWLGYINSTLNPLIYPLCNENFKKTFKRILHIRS
Chain of Neuropeptide Y (Y1) (P25929 whole entry): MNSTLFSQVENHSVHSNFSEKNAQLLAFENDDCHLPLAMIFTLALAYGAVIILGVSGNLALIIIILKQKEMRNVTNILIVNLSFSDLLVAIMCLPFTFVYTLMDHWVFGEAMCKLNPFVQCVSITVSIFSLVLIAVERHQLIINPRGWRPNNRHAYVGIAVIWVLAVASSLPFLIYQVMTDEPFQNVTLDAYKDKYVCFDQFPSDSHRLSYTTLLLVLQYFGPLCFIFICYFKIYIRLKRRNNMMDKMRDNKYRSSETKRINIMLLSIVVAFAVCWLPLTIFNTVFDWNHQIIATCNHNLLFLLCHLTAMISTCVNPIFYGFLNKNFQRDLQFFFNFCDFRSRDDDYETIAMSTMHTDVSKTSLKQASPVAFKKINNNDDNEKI
Chain of Dopamine D1 (P21728 whole entry): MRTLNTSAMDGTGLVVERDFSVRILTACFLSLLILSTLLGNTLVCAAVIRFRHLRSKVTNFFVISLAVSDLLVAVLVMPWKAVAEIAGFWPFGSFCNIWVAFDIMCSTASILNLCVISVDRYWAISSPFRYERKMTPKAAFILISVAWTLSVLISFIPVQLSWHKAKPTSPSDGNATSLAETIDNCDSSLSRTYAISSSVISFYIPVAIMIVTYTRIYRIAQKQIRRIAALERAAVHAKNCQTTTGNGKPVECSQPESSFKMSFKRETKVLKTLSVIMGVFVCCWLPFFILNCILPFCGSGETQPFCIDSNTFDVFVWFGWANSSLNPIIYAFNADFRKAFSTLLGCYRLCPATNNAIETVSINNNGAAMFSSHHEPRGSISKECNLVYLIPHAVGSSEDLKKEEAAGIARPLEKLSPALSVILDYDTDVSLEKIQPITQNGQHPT
Chain of CCR7 (P32248 25-378): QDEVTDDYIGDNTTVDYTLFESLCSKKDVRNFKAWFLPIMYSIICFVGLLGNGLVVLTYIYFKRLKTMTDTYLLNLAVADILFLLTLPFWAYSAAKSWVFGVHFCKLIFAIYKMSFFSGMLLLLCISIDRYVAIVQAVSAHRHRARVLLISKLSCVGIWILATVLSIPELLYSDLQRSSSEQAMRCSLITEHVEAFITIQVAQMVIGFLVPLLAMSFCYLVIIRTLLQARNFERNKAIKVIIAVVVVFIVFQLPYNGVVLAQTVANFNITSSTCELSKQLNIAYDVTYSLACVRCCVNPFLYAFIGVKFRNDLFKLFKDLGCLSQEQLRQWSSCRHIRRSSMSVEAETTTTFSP
Chain of Muscarinic M2 (P08172 whole entry): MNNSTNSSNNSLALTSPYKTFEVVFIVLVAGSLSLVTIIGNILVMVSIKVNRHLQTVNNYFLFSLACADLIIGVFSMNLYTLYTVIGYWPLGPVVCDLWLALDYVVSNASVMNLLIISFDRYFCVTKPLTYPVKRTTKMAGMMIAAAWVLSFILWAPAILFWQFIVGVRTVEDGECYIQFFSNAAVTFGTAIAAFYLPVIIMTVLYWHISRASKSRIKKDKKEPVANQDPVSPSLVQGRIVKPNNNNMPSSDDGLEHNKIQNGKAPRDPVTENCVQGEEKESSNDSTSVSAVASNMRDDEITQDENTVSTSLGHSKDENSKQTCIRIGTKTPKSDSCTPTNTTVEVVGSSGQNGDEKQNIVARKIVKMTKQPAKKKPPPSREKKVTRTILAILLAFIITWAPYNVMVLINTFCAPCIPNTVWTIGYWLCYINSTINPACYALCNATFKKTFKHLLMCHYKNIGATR
Chain of Adrenergic α2B (P18089 whole entry): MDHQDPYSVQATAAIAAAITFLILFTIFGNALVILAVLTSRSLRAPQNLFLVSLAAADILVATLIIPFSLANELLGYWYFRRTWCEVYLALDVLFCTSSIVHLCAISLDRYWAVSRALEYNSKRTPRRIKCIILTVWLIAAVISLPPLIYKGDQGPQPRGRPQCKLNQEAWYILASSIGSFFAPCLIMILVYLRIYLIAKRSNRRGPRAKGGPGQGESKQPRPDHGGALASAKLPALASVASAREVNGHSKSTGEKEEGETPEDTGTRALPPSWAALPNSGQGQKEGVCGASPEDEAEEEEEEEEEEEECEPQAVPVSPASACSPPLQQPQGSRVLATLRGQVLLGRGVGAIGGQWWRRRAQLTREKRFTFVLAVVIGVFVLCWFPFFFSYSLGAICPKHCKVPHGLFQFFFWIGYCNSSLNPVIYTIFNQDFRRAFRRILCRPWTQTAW
Chain of Kappa opiate (P41145 whole entry): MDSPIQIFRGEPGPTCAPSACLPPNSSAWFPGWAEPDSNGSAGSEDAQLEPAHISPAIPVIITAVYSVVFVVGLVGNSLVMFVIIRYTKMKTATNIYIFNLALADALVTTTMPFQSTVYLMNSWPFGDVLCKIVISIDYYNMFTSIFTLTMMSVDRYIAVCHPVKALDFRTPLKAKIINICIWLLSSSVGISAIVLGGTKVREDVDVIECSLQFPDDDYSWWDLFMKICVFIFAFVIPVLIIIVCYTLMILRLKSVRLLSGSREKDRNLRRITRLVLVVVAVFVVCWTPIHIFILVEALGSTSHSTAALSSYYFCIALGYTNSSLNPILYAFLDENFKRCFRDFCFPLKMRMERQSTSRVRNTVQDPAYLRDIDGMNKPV
Chain of CXCR2 (P25025 whole entry): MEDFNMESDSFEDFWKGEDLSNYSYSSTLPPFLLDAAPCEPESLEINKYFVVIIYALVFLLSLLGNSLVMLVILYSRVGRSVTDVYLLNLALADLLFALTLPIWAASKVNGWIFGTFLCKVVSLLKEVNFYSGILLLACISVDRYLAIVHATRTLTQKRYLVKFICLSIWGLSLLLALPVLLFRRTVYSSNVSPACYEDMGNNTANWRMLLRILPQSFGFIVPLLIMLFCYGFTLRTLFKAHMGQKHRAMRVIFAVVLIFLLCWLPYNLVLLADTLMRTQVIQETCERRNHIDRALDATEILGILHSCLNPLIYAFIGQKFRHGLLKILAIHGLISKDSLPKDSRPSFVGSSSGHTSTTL
Chain of Dopamine D3 (P35462 whole entry): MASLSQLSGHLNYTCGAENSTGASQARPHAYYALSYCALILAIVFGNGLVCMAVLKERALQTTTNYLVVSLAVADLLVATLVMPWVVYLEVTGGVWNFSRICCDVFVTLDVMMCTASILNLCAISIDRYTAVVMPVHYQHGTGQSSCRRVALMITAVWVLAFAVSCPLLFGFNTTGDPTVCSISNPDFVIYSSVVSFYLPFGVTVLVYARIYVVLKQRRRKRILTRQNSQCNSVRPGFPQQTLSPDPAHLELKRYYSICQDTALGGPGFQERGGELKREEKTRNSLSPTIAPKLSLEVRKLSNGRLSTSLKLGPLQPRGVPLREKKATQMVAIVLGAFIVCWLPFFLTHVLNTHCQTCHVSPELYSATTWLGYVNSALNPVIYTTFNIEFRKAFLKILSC

CC[C@H]1CN(c2nc(N)c(C(N)=O)nc2Cl)CCN1C1CCN(Cc2ccc(Cl)cc2)CC1 [SCH 546738]
effect on disease onset and severity ([1]; 30 mpk orally twice daily, alone, days 17 and 19): delayed disease onset and attenuated disease severity
effect on disease onset and severity, combination treatment ([1]; SCH 546738 30 mpk p.o. twice daily combined with IFN-β 1700 ng i.m. daily, compared to either alone): significant additive effect
IC50 ([2]; [125I-hI-TAC] 12.5 pM, 3 hr reaction, read-out: IC50): 2 nM
IC50 ([2]; [125I-hI-TAC] 50 pM, 3 hr reaction, read-out: IC50): 1.8 nM
IC50 ([2]; [125I-hI-TAC] 250 pM, 3 hr reaction, read-out: IC50): 2.2 nM
IC50 ([2]; [125I]hCXCL11 12.5-250 pM, read-out: IC50 (constant, independent of input concentration)): ~2 nM
Ki [3]: 0.4 nM
effect on disease severity ([4]; 3 mpk oral twice daily): no statistically significant effect
effect on disease score ([4]; 10 mpk oral twice daily, days 7 and 9): protected significantly
effect on disease score ([4]; 40 mpk oral twice daily, day -4 to day 9, days 4, 7 and 9): significant reduction of the disease score
leukocyte infiltration into the joint (histopathology score) [4, 21]: significantly attenuated
structural damage to the bone and cartilage (histopathology score) [4, 21]: significantly attenuated
inhibition at 10 µM [5]: 18%
inhibition at 4 µM [6]: 6%
inhibition at 2 µM [7]: 46%
inhibition at 4 µM [8]: 28%
inhibition at 4 µM [9]: 4%
inhibition at 10 µM [10]: 20%
inhibition at 4 µM [11]: 7%
inhibition at 2 µM [12]: -2%
inhibition at 4 µM [13]: 52%
inhibition at 10 µM [14]: 0%
inhibition at 10 µM [15]: 18%
inhibition at 2 µM [16]: 0%
Inhibition (%) [17]: 0% @ 4 μM
inhibition at 4 µM [18]: 30%
inhibition at 2 µM [19]: 29%
inhibition at 4 µM [20]: 15%
